Assay results reported in patent publication US20090012172A1, “Cosmetic/pharmaceutical compositions comprising retinoids and anti-irritants and treatment of keratinization disorders therewith” (GALDERMA RESEARCH & DEVELOPMENT, priority 2005, published 2009).
Entries after “also recorded” stand apart in the source; their conditions may differ.

How the values were obtained:
ear of the BALB/c mouse [1] = experiment: Tolerance study: anti-irritant in preventive treatment before topical Differin gel, ear thickness (edema); format: in vivo; conditions: anti-irritant applied before Differin gel
Method: The goal of the present study is to compare the irritant power of a reference gel, comprising 0.1% adapalene, when this treatment is preceded or not preceded by treatment with an anti-irritant.
(§1) The treatment consists of a daily topical application (20 μl) of anti-irritant, formulated in an aqueous/alcoholic vehicle (50% ethanol and 50% water by volume), on the internal face of the right ear of BALB/c mice divided into 15 groups (female mice approximately 9 weeks old), followed by a topical application (20 μl) of Differin® gel (reference gel comprising 0.1% adapalene) at the rate of one application of each formulation per day for 6 days.
(§2) Evaluation is carried out by measurements of the thickness of the ear by means of the Oditest and by clinical observation of the animals from the 2nd to 19th day.

ear of the BALB/c mouse [2] = experiment: Study of tolerance of the formulation of Example 4 (non-split treatment), ear thickness; format: in vivo; conditions: adapalene and anti-irritant in the same formulation
Method: as §1, §2
A study of tolerance is carried out according to the protocol of Example 2 with the formulation of Example 4. However, the present case, in contrast to Example 2, relates to a treatment which is not split since the adapalene and the anti-irritant are present in the same formulation.

[3] = tested on: skin of the back of the Rhino mouse (comedones); experiment: Comedolytic activity of Differin gel alone or preceded by anti-irritant on the Rhino mouse; format: in vivo, RHINO FVB/N RJ-hr (Rhino) mouse
Method: The goal of the present study is to compare the comedolytic activity of Differin® gel (reference gel comprising 0.1% adapalene) whether this treatment is preceded or not preceded by a treatment with an anti-irritant.
The treatment consists of a daily topical application of an aqueous/alcoholic vehicle (ethanol/water 50:50) comprising the anti-irritant potassium salt of 18β-glycyrrhetinic acid, followed 30 minutes later by an application of Differin® gel, on the skin of the back of the RHINO FVB/N RJ-hr^th (Rhino) mouse for 18 days.

| SMILES | effect on the irritation caused by Differin gel (in words) (ear of the BALB/c mouse [1]) | effect on the irritation caused by Differin gel (in words) (ear of the BALB/c mouse [1]; listed as enoxolone) | anti-irritant effect (in words) (ear of the BALB/c mouse [2]) | number of comedones per centimeter ([3]; back of Rhino mice after 18 days of daily topical treatment) | effect on the comedolytic activity of Differin gel (in words) ([3]; split treatment, anti-irritant 30 minutes before Differin gel, 18 days) |
| --- | --- | --- | --- | --- | --- |
| CC1(C)[C@@H](O)CC[C@]2(C)[C@H]3C(=O)C=C4[C@@H]5C[C@@](C)(C(=O)O)CC[C@]5(C)CC[C@@]4(C)[C@]3(C)CC[C@@H]12 [Enoxolone, 18β-Glycyrrhetinic acid] | virtually no effect | does not have an effect on the irritation due to retinoids | – | – | – |
| CC1(C)[C@@H](O)CC[C@]2(C)[C@H]3C(=O)C=C4[C@@H]5C[C@@](C)(C(=O)[O-])CC[C@]5(C)CC[C@@]4(C)[C@]3(C)CC[C@@H]12.[K+] [Potassium salt of 18β-glycyrrhetinic acid] | effective in reducing the irritation due to adapalene; also recorded: significantly reduces the irritation | – | appears to be an effective anti-irritant | statistically equivalent to that of groups 1 and 3 | does not reduce the comedolytic activity |
